In ChEMBL document CHEMBL1201862, “PubChem BioAssay data set” (2004):
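These data come from cells grown in 96-well plates and exposed to compound for 48 hours at five concentrations. At the GI50, growth is halved.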 Activity calls are given as the source filed them. No stated cut-off is given here; in the data, active = GI50 up to about 1.1 µM and inactive = higher.

Tests used:
Assay in all cases: DTP human tumour cell line panel, 48 h
786-0 = tested on: 786-0
A549 = tested on: A549
CAKI-1 = tested on: CAKI-1
CCRF-CEM = tested on: CCRF-CEM
HOP-92 = tested on: HOP-92
HT-29 = tested on: HT-29
KM12 = tested on: KM12
Malme-3M = tested on: Malme-3M
NCI-H226 = tested on: NCI-H226
PC-3 = tested on: PC-3
SF-539 = tested on: SF-539
SK-MEL-28 = tested on: SK-MEL-28
SK-MEL-5 = tested on: SK-MEL-5
SK-OV-3 = tested on: SK-OV-3
SN12C = tested on: SN12C
SNB-19 = tested on: SNB-19
SR = tested on: SR
U-251 = tested on: U-251
UACC-257 = tested on: UACC-257
HL-60 = tested on: HL-60

Structure (SMILES) | GI50 (786-0) | GI50 (A549) | GI50 (CAKI-1) | GI50 (CCRF-CEM) | GI50 (HOP-92) | GI50 (HT-29) | GI50 (KM12) | GI50 (Malme-3M) | GI50 (NCI-H226) | GI50 (PC-3) | GI50 (SF-539) | GI50 (SK-MEL-28) | GI50 (SK-MEL-5) | GI50 (SK-OV-3) | GI50 (SN12C) | GI50 (SNB-19) | GI50 (SR) | GI50 (U-251) | GI50 (UACC-257) | GI50 (HL-60)
O=[N+]([O-])C(=C/c1cccc2ccccc12)/C(=C\c1cccc2ccccc12)[N+](=O)[O-] | 1.77 µM (inactive) | 15.3 µM (inactive) | 2.2 µM (inactive) | 0.528 µM (active) | 1.92 µM (inactive) | 2.21 µM (inactive) | 4.23 µM (inactive) | 2.07 µM (inactive) | 4.85 µM (inactive) | 5.24 µM (inactive) | 2.21 µM (inactive) | 1.83 µM (inactive) | 2.9 µM (inactive) | 6.08 µM (inactive) | 2.34 µM (inactive) | 4.51 µM (inactive) | 0.955 µM (active) | 1.95 µM (inactive) | 2.32 µM (inactive) | –
O=C(O)CNCCc1ccccc1 | > 100 µM (inactive) | > 100 µM (inactive) | > 100 µM (inactive) | > 100 µM (inactive) | > 100 µM (inactive) | > 100 µM (inactive) | > 100 µM (inactive) | > 100 µM (inactive) | > 100 µM (inactive) | > 100 µM (inactive) | – | > 100 µM (inactive) | > 100 µM (inactive) | > 100 µM (inactive) | > 100 µM (inactive) | > 100 µM (inactive) | > 100 µM (inactive) | > 100 µM (inactive) | – | > 100 µM (inactive)
O=C(Nc1ccccc1)N1CC(CN2CCN(c3ccccc3)CC2)OC1=O (stereo not drawn) | > 100 µM (inactive) | > 100 µM (inactive) | > 100 µM (inactive) | > 100 µM (inactive) | > 100 µM (inactive) | > 100 µM (inactive) | > 100 µM (inactive) | > 100 µM (inactive) | > 100 µM (inactive) | > 100 µM (inactive) | – | > 100 µM (inactive) | > 100 µM (inactive) | > 100 µM (inactive) | > 100 µM (inactive) | > 100 µM (inactive) | > 100 µM (inactive) | > 100 µM (inactive) | > 100 µM (inactive) | > 100 µM (inactive)
COc1ccc2c(c1)CC[C@@H]1[C@@H]2CC[C@]2(C)C(=O)/C(=C/c3ccc(O)c(OC)c3)C[C@@H]12 | – | 51.6 µM (inactive) | 67.8 µM (inactive) | 66.2 µM (inactive) | > 100 µM (inactive) | 51.8 µM (inactive) | – | – | 44.2 µM (inactive) | 39.1 µM (inactive) | – | 52.1 µM (inactive) | 33.9 µM (inactive) | > 100 µM (inactive) | – | > 100 µM (inactive) | 32.2 µM (inactive) | 51.3 µM (inactive) | 57.8 µM (inactive) | 47.8 µM (inactive)
CCCCC1=NNC(=O)C1 | > 100 µM (inactive) | > 100 µM (inactive) | > 100 µM (inactive) | > 100 µM (inactive) | > 100 µM (inactive) | > 100 µM (inactive) | > 100 µM (inactive) | > 100 µM (inactive) | > 100 µM (inactive) | > 100 µM (inactive) | > 100 µM (inactive) | > 100 µM (inactive) | > 100 µM (inactive) | > 100 µM (inactive) | > 100 µM (inactive) | – | > 100 µM (inactive) | > 100 µM (inactive) | > 100 µM (inactive) | > 100 µM (inactive)
COC(=O)CNCC1OC2OC(C)(C)OC2C1N=[N+]=[N-] (stereo not drawn) | > 100 µM (inactive) | > 100 µM (inactive) | > 100 µM (inactive) | > 100 µM (inactive) | > 100 µM (inactive) | > 100 µM (inactive) | > 100 µM (inactive) | – | > 100 µM (inactive) | > 100 µM (inactive) | > 100 µM (inactive) | > 100 µM (inactive) | > 100 µM (inactive) | > 100 µM (inactive) | > 100 µM (inactive) | > 100 µM (inactive) | > 100 µM (inactive) | > 100 µM (inactive) | > 100 µM (inactive) | > 100 µM (inactive)
Cc1ccccc1CN1CC2=C(CCN(Cc3ccccc3)C2=O)N2CCN=C12 | 8.89 µM (inactive) | 4.76 µM (inactive) | 4.69 µM (inactive) | – | 21.6 µM (inactive) | 5.31 µM (inactive) | 46.2 µM (inactive) | – | 3.56 µM (inactive) | 3.58 µM (inactive) | 52.4 µM (inactive) | 29.2 µM (inactive) | 2.63 µM (inactive) | 7.78 µM (inactive) | 5.6 µM (inactive) | 6.79 µM (inactive) | 4.59 µM (inactive) | 4.8 µM (inactive) | 3.5 µM (inactive) | 3.78 µM (inactive)
CC1(C)OC2OC(C(=O)c3ccccc3)C3OC(C)(C)OC3C2O1 (stereo not drawn) | > 100 µM (inactive) | – | > 100 µM (inactive) | > 100 µM (inactive) | > 100 µM (inactive) | – | > 100 µM (inactive) | – | > 100 µM (inactive) | > 100 µM (inactive) | > 100 µM (inactive) | – | > 100 µM (inactive) | > 100 µM (inactive) | > 100 µM (inactive) | > 100 µM (inactive) | > 100 µM (inactive) | > 100 µM (inactive) | > 100 µM (inactive) | > 100 µM (inactive)
CC1=C(C#N)c2nc3ccccc3n2C(=O)C1(C)CCO (stereo not drawn) | > 100 µM (inactive) | > 100 µM (inactive) | > 100 µM (inactive) | > 100 µM (inactive) | > 100 µM (inactive) | > 100 µM (inactive) | – | > 100 µM (inactive) | > 100 µM (inactive) | > 100 µM (inactive) | > 100 µM (inactive) | > 100 µM (inactive) | > 100 µM (inactive) | > 100 µM (inactive) | > 100 µM (inactive) | > 100 µM (inactive) | 24.3 µM (inactive) | > 100 µM (inactive) | > 100 µM (inactive) | > 100 µM (inactive)
CN1CCCOC(c2ccc([N+](=O)[O-])cc2)O1 (stereo not drawn) | > 100 µM (inactive) | > 100 µM (inactive) | > 100 µM (inactive) | > 100 µM (inactive) | > 100 µM (inactive) | > 100 µM (inactive) | > 100 µM (inactive) | > 100 µM (inactive) | > 100 µM (inactive) | > 100 µM (inactive) | > 100 µM (inactive) | > 100 µM (inactive) | > 100 µM (inactive) | > 100 µM (inactive) | > 100 µM (inactive) | > 100 µM (inactive) | > 100 µM (inactive) | > 100 µM (inactive) | > 100 µM (inactive) | –
CCc1nc(N)c2nc(-c3ccc(C#N)cc3)oc2n1 | > 100 µM (inactive) | > 100 µM (inactive) | > 100 µM (inactive) | > 100 µM (inactive) | > 100 µM (inactive) | > 100 µM (inactive) | > 100 µM (inactive) | – | > 100 µM (inactive) | > 100 µM (inactive) | > 100 µM (inactive) | > 100 µM (inactive) | > 100 µM (inactive) | – | > 100 µM (inactive) | > 100 µM (inactive) | > 100 µM (inactive) | – | > 100 µM (inactive) | > 10 µM (inactive)
